Measurements: patent publication US12234205B1, “Sulfonylhydrazide derivatives as anticancer agents” (KING SAUD UNIVERSITY, priority 2024, dated 2025)

How the values were obtained:
[1] = target: T1, hFAAH (Homo sapiens, UniProt O00519); experiment: Inhibition of FAAH activity (Cayman FAAH inhibitor screening assay kit, AMC-arachidonoyl amide hydrolysis, fluorescence); format: biochemical; details: 30 min preincubation; for inhibition at 10 µM: 10 μM compound, 37° C., triplicate; for IC50: only compounds with more than 50% inhibition at 10 μM
T1 construct: purchased Cayman Chemicals 10005196
T1 sequence (O00519 1-579): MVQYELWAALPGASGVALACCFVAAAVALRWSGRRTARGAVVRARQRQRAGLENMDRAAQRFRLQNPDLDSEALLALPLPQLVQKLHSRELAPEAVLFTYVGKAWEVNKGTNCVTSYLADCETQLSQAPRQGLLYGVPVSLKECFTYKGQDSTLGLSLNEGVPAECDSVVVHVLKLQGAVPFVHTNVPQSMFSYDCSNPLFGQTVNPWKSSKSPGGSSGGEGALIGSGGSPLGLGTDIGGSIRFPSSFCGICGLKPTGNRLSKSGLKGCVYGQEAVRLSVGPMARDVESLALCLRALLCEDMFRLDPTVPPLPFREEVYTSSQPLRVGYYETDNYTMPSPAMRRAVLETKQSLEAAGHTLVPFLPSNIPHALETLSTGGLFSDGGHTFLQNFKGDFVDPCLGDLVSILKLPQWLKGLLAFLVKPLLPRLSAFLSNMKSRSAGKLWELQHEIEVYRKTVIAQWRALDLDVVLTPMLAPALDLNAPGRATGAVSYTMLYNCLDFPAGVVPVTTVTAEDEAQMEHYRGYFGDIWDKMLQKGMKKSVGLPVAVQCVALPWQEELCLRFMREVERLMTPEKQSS
Description: Inhibition of FAAH Activity
Assay was performed using kits (#10005196) purchased from Cayman Chemicals (Anne Arbor, MI, USA). Ibuprofen was acquired as a generous gift from Tabuk Pharmaceuticals (Tabuk, SA). Doxorubicin was purchased from Sigma (St. Luis, MI, USA). Assay was performed using the FAAH inhibitor screening assay kit from Cayman Chemicals according to the manufacturer's protocol. Release of the fluorescent product, 7-amino-4-methylcoumarin (AMC), from the hydrolysis of AMC-arachidonoyl amide, mediated by FAAH at 37° C., was recorded using a plate reader with an excitation filter of 340-360 nm and an emission filter of 450-465 nm. Inhibitors were preincubated for 30 min at indicated concentrations with the enzyme prior to the addition of substrate to initiate the reaction. Change in fluorescence with time was taken as enzyme activity and the extent of inhibition was calculated from the initial rates. Final DMSO concentration was kept at 2% (v/v) in the assay. Each concentration was repeated three times (Triplicate) to conform to statistical accuracy. Percentage of inhibition at 10 μM was measured for all compounds. Compounds which were able to inhibit the enzyme activity more than 50% at 10 μM were considered eligible for IC50 calculations. For IC50, the inhibition assay was performed at 1.0, 0.1, 0.01, 0.001 and 0.0001 μM concentration of compound under assay. The hFAAH inhibition was calculated as compared to activity observed with vehicle. IC50 values were calculated using Prism v.7.02 for each column separately (singlet concentration). The compound's IC50 was calculated using InStat v.3 software (GraphPad Software, San Diego, CA) which was also used for calculation of standard error of means (SEM). Referring to FIG. 1, inhibition of hFAAH by compound 10 is shown.
(§1) IC50 is the concentration at which 50% of the cells were inhibited after treatment with a target compound. SEM is the standard error of means.

[2] = test system: A549 NSCLC cell line; experiment: Inhibition of A549 NSCLC cell line (sulforhodamine B assay, 72 h); format: cell-based; details: Homo sapiens, SRB assay, 72 hours exposure
Description: as §1
Inhibition of A549 NSCLS (Non-Small Cells Lung Cancer) Cell Line
A549 cell lines were obtained from the National Cancer Institute (Cairo, Egypt) and maintained in Roswell Park Memorial Institute medium (RPMI1640) (Invitrogen, Carlsbad, CA, USA) supplemented with […] of streptomycin, 100 units/mL of penicillin and 10% of heat-inactivated fetal bovine serum (Invitrogen) in a humidified, 5% (v/v) CO2 atmosphere at 37° C. The sulforhodamine B (SRB) assays were performed according to Skehan et al 20, 21. Briefly, exponentially growing cells were trypsinized, counted and seeded at the appropriate densities (5000 cells/100 μL/well) into 96-well microtiter plates. Cells were incubated in a humidified atmosphere at 37° C. for 24 h. Then, the cells were exposed to different compounds at the desired concentrations, (0.01, 0.03, 0.1, 0.3, 1, 3, 10, 30 and 100 μM) or to 1% dimethyl sulfoxide (DMSO) for 72 hours. At the end of the treatment period, the media were removed, and the cells were fixed with 10% trichloroacetic acid at 4° C. for 1 h. The cells then were washed with tap water four times and incubated with SRB 0.4% for 30 min. Excess dye was removed by washing repeatedly with 1% (vol/vol) acetic acid. The protein-bound dye was dissolved in 10 mM Tris base solution for OD determination at 510 nm using a SpectraMax plus Microplate Reader (Molecular Devices, CA). Cell viability was expressed relative to the untreated control cells. Statistical analyses were performed using legally licensed GraphPad Prism™ and Instat™ software (GraphPad Inc., La Jolla, CA, USA).

Structure (SMILES)	inhibition at 10 µM [1] [%]	IC50 [2] [µM]	IC50 [1] [µM]
CC(=O)c1ccc(S(=O)(=O)NNC(=O)C(C)c2ccc(CC(C)C)cc2)cc1 (stereo not drawn) [Compound 1, 4-acetyl-N′-(2-(4-isobutylphenyl)propanoyl)benzenesulfonohydrazide]	33.6	> 100	–
Cc1ccc(S(=O)(=O)NNC(=O)C(C)c2ccc(CC(C)C)cc2)cc1 (stereo not drawn) [Compound 2, N′-(2-(4-isobutylphenyl)propanoyl)-4-methylbenzene sulfonohydrazide]	63.5	> 100	1.46
CC(C)Cc1ccc(C(C)C(=O)NNS(=O)(=O)c2ccccc2[N+](=O)[O-])cc1 (stereo not drawn) [Compound 3, N′-(2-(4-isobutylphenyl)propanoyl)-2-nitrobenzenesulfonohydrazide]	45.5	55.6	–
CC(C)Cc1ccc(C(C)C(=O)NNS(=O)(=O)c2ccc3ccccc3c2)cc1 (stereo not drawn) [Compound 4, N′-(2-(4-isobutylphenyl)propanoyl)naphthalene-2-sulfonohydrazide]	87.8	53	0.179
CC(C)Cc1ccc(C(C)C(=O)NNS(=O)(=O)c2c(C(C)C)cc(C(C)C)cc2C(C)C)cc1 (stereo not drawn) [Compound 5, N′-(2-(4-isobutylphenyl)propanoyl)-2,4, 6 triisopropyl benzene sulfonohydrazide]	8.85	73	–
CC(C)Cc1ccc(C(C)C(=O)NNS(=O)(=O)C(Br)c2ccccc2)cc1 (stereo not drawn) [Compound 6, 1-Bromo-N′-(2-(4-isobutylphenyl)propanoyl)-1-phenylmethane sulfonohydrazide]	20.6	> 100	–
CC(C)Cc1ccc(C(C)C(=O)NNS(=O)(=O)c2cccc(C(F)(F)F)c2)cc1 (stereo not drawn) [Compound 7, N′-(2-(4-isobutylphenyl)propanoyl)-3-(trifluoromethyl) benzene sulfonohydrazide]	36.1	> 100	–
CC(C)Cc1ccc(C(C)C(=O)NNS(=O)(=O)c2ccc(C(F)(F)F)cc2)cc1 (stereo not drawn) [Compound 8, N′-(2-(4-isobutylphenyl)propanoyl)-4-(trifluoromethyl) benzene sulfonohydrazide]	74	40.1	1.2
CC(C)Cc1ccc(C(C)C(=O)NNS(=O)(=O)c2ccccc2)cc1 (stereo not drawn) [Compound 9, N′-(2-(4-isobutylphenyl)propanoyl) benzenesulfonohydrazide]	99.9	46.4	0.144
CC(C)Cc1ccc(C(C)C(=O)NNS(=O)(=O)c2ccc(-c3ccccc3)cc2)cc1 (stereo not drawn) [Compound 10, N′-(2-(4-isobutylphenyl)propanoyl)-[1, 1′-biphenyl]-4-sulfonohydrazide]	98.1	0.291	0.0056
Cc1ccc(-c2ccc(S(=O)(=O)NNC(=O)C(C)c3ccc(CC(C)C)cc3)cc2)cc1 (stereo not drawn) [Compound 11, N′-(2-(4-isobutylphenyl)propanoyl)-4′-methyl-[1, 1′-biphenyl]-4-sulfonohydrazide]	95.3	16	0.072
COc1ccc(-c2ccc(S(=O)(=O)NNC(=O)C(C)c3ccc(CC(C)C)cc3)cc2)cc1 (stereo not drawn) [Compound 12, N′-(2-(4-isobutylphenyl)propanoyl)-4′-methoxy-[1, 1′-biphenyl]-4sulfonohydrazide]	99	11.7	0.141
CC(C)Cc1ccc(C(C)C(=O)NNS(=O)(=O)c2ccc(Br)cc2)cc1 (stereo not drawn) [Compound 13, 4-Bromo-N′-(2-(4-isobutylphenyl)propanoyl)benzenesulfonohydrazide]	48.7	> 100	–
COc1ccc(S(=O)(=O)NNC(=O)C(C)c2ccc(CC(C)C)cc2)cc1OC (stereo not drawn) [Compound 14, N′-(2-(4-isobutylphenyl)propanoyl)-3,4-dimethoxybenzene sulfonohydrazide]	23.8	> 100	–
CC(C)Cc1ccc(C(C)C(=O)NNS(=O)(=O)c2cccs2)cc1 (stereo not drawn) [Compound 15, N′-(2-(4-isobutylphenyl)propanoyl)thiophene-2-sulfonohydrazide]	86.5	> 100	0.672
CC(C)Cc1ccc(C(C)C(=O)NNS(=O)(=O)c2ccc(Br)s2)cc1 (stereo not drawn) [Compound 16, 5-Bromo-N′-(2-(4-isobutylphenyl)propanoyl) thiophene-2-sulfonohydrazide]	28.4	> 100	–
Cc1ccc(S(=O)(=O)NNC(=O)C(C)c2ccc(CC(C)C)cc2)s1 (stereo not drawn) [Compound 17, N′-(2-(4-isobutylphenyl)propanoyl)-5-methylthiophene-2-sulfonohydrazide]	7.44	> 100	–
CC(C)Cc1ccc(C(C)C(=O)NNS(=O)(=O)c2cccnc2)cc1 (stereo not drawn) [Compound 18, N′-(2-(4-isobutylphenyl)propanoyl)pyridine-3-sulfonohydrazide]	58.6	> 100	4.01
CC(C)Cc1ccc(C(C)C(=O)NNS(=O)(=O)c2ccc(C(F)(F)F)nc2)cc1 (stereo not drawn) [Compound 19, N′-(2-(4-isobutylphenyl)propanoyl)-6-(trifluoromethyl)pyridine-3sulfonohydrazide]	40.5	> 100	–
CC(C)Cc1ccc(C(C)C(=O)NNS(=O)(=O)Cc2ccccc2)cc1 (stereo not drawn) [Compound 20, N′-(2-(4-isobutylphenyl)propanoyl)-1-phenylmethanesulfonohydrazide]	44.2	> 100	–
COc1cccc2c1C(=O)c1c(O)c3c(c(O)c1C2=O)C[C@@](O)(C(=O)CO)C[C@@H]3O[C@H]1C[C@H](N)[C@H](O)[C@H](C)O1 [Doxorubicin, reference compound]	–	2.28	–
CC(C)Cc1ccc(C(C)C(=O)O)cc1 (stereo not drawn) [Ibuprofen, reference compound]	10	–	–
